In patent publication US20120219613A1 (priority 2009, published 2012):

Columns and labels:
Ebola = assay: microbe, parasite or virus in culture; format: cell-based; conditions: Zaire ebolavirus, read-out: Activity
Marburg = assay: organism not typed; format: cell-based, Musoke/Ravn; conditions: read-out: Activity
Influenza A = assay: microbe, parasite or virus in culture; format: cell-based, WSN H1N1; conditions: read-out: Activity
Junín = assay: organism not typed; format: cell-based; conditions: read-out: Activity
Rift Valley Fever = assay: organism not typed; format: cell-based; conditions: read-out: Activity
LaCrosse = assay: organism not typed; format: cell-based; conditions: read-out: Activity
Nipah = assay: organism not typed; format: cell-based, Malaysia
Omsk = assay: organism not typed; format: cell-based, Omsk Hemorrhagic Fever, Guriev; conditions: read-out: Activity
RSSE = assay: organism not typed; format: cell-based, Russian Spring Summer Encephalitis, Sofiin; conditions: read-out: Activity
PIV-5 = assay: organism not typed; format: cell-based; conditions: read-out: Activity
HPIV-3 = assay: microbe, parasite or virus in culture; format: cell-based; conditions: Human respirovirus 3, read-out: Activity
NDV = format: cell-based, Newcastle Disease, rNDV/F3aa-GFP
HIV-1 = assay: microbe, parasite or virus in culture; format: cell-based; conditions: Human immunodeficiency virus 1, read-out: Activity
Murine Leukemia = assay: cells; format: cell-based, F57; conditions: Mus musculus, read-out: Activity
Yellow Fever = assay: organism not typed; format: cell-based, Asibi; conditions: read-out: Activity
Hepatitis C Virus = assay: microbe, parasite or virus in culture; format: cell-based; conditions: read-out: Activity
West Nile Virus = assay: microbe, parasite or virus in culture; format: cell-based; conditions: read-out: Activity
Vesicular = assay: microbe, parasite or virus in culture; format: cell-based, Vesicular Stomatitis, Indiana
Cowpox = assay: organism not typed; format: cell-based, Brighton; conditions: read-out: Activity
Vaccinia = assay: microbe, parasite or virus in culture; format: cell-based, VTF1.1; conditions: Orthopoxvirus vaccinia, read-out: Activity
Adenovirus = assay: microbe, parasite or virus in culture; format: cell-based; conditions: unidentified adenovirus, read-out: Activity
Coxsackie B = assay: organism not typed; format: cell-based; conditions: read-out: Activity
Reovirus = assay: microbe, parasite or virus in culture; format: cell-based; conditions: Reovirus sp., read-out: Activity
NiV-pVSV [1] = assay: microbe, parasite or virus in culture; format: cell-based, Nipah virus envelope pseudotyped onto VSV
VSV-G pseudotyped VSV = format: cell-based, Vesicular Stomatitis virus
VSV transcription = format: biochemical, VSV-Indiana
live VSV and NiV-pVSV = format: cell-based
[2] = test system: Vero cells infected with pVSV; format: cell-based
pVSV = format: cell-based
Vero cells [3] = format: cell-based
NiV-pVSV [4] = format: cell-based
RVFV MP-12 = format: cell-based, Rift Valley fever virus
[5] = test system: NiV-pseudotyped pVSV binding to ephrinB2; format: cell-based
NiV VLPs = format: cell-based, Nipah virus
[6] = test system: NiV envelope mediated cell-cell fusion; format: cell-based
HIV-1 (JRCSF) = format: cell-based
Vero cells [7] = test system: Vero cells
Vero cells [8] = test system: Vero cells; remark: listed apart in the source
[9] = mouse, in vivo
[10] = male, Sprague-Dawley, rat, in vivo
in vivo = conditions: male, Sprague-Dawley, rat, ip

## C=CCN1C(=O)/C(=C/c2ccc(-c3ccccc3)o2)SC1=S [LJ-001, (Z)-3-Allyl-5-(5-phenyl-2-furyl)methylene-4-oxothiazolidine-2-thione]
Ebola
  IC50: 500 to 1000 nM
Marburg
  IC50: 500 to 1000 nM
Influenza A
  IC50: < 500 nM
Junín
  IC50: 500 to 1000 nM
Rift Valley Fever
  IC50: < 500 nM
LaCrosse
  IC50: < 500 nM
Nipah
  infection and infectious spread of live NiV: inhibit infection and infectious spread
Nipah; read-out: Activity
  IC50: 500 to 1000 nM
Omsk
  IC50: 500 to 1000 nM
RSSE
  IC50: 500 to 1000 nM
PIV-5
  IC50: 500 to 1000 nM
HPIV-3
  IC50: 500 to 1000 nM
NDV
  IC50: 500 to 1000 nM
HIV-1
  IC50: 500 to 1000 nM
Murine Leukemia
  IC50: 500 to 1000 nM
Yellow Fever
  IC50: < 500 nM
Hepatitis C Virus
  IC50: < 500 nM
West Nile Virus
  IC50: < 500 nM
Vesicular
  infection and infectious spread of live VSV: inhibit infection and infectious spread
Vesicular; Vesicular stomatitis virus, read-out: Activity
  IC50: 500 to 1000 nM
Cowpox
  IC50: 1000 to 5000 nM
Vaccinia
  IC50: 500 to 1000 nM
Adenovirus
  IC50: > 10000 nM
Coxsackie B
  IC50: > 10000 nM
Reovirus
  IC50: > 10000 nM
NiV-pVSV [1]
  effect of pre-treatment temperature and duration on antiviral activity: no significant effect
  reporter virus entry via Nipah virus envelope (NiV-F/G): inhibited reporter virus entry
NiV-pVSV [1]; Vesicular stomatitis virus, Vero, read-out: in vitro IC50 concentrations
  IC50: ~1000 nM
VSV-G pseudotyped VSV
  reporter virus entry via Vesicular Stomatitis virus envelope proteins (VSV-G): inhibited reporter virus entry
VSV transcription
  viral transcription, mRNA production, and mRNA capping of VSV: unaffected
Live VSV and NiV-pVSV
  infectivity of treated virus after 4 h PBS wash and secondary repurification: remained non-infectious
  infectivity of treated virus after washing and repurification: non-infectious
[2]
  inhibitory effect after washing pre-treated target cells: Washing the cells reversed the inhibitory effect
pVSV
  inhibitory effect versus time of addition: apparent only when the compound was added before or during, but not after, the viral infection period
Vero cells [3]
  intercalation into cellular membranes: dose-dependent increase in fluorescence
NiV-pVSV [4]
  effect of compound pre-incubated with saturating liposomes on viral infection: no effect on viral infection
  effect of excess liposomes, virus pre-exposed to compound: no longer able to rescue viral infection
  effect of liposome size on binding or reversal of inhibition: no effect
  effect of liposomes, virus and liposomes simultaneously subjected to compound: competed off virus infection
pVSV particles
  virion membrane morphology by EM: significant distortion of the viral membrane
RVFV MP-12
  infectivity of gradient fractions: completely non-infectious
  reduction in infectivity: ≥ 5 log
[5]
  virus-cell binding: still bound cognate cell surface receptors
NiV VLPs
  cytoplasmic delivery of beta-lactamase matrix fusion protein: inhibited cytoplasmic delivery
[6]
  NiV envelope mediated cell-cell fusion: did not inhibit
HIV-1 (JRCSF)
  sensitivity of passaged virus to compound: no evidence of decreased sensitivity
Vero cells [7]
  toxic effects in AK and LD enzyme release assays: little to no toxic effects
Vero cells [8]
  active cell metabolism (Alamar Blue uptake): no effect on active cell metabolism
[9]
  complete blood counts with differential: no difference relative to the vehicle control group
  hematocrit and hemoglobin levels: normal
  liver function tests, kidney function tests, serum electrolytes: all normal and equivalent to the vehicle control mice
  serum cholesterol levels: statistically significant elevation
  serum metabolites (glucose, phosphate, triglycerides): normal
  weight loss: < 10%
[10]
  peak serum concentration, 20 mg/kg group versus 50 mg/kg group: higher peak serum concentration than the 50 mg/kg group
[10]; ip
  time until serum levels approach in vitro IC50 concentrations: about 2 hours
In vivo
  half-life: ~4 h
